This is an account of results in article PMC6166228 (ACS Omega, 2018).

The target of one series is T1, human AT1 receptor (Homo sapiens, UniProt P30556).
T1 sequence (P30556 1-359): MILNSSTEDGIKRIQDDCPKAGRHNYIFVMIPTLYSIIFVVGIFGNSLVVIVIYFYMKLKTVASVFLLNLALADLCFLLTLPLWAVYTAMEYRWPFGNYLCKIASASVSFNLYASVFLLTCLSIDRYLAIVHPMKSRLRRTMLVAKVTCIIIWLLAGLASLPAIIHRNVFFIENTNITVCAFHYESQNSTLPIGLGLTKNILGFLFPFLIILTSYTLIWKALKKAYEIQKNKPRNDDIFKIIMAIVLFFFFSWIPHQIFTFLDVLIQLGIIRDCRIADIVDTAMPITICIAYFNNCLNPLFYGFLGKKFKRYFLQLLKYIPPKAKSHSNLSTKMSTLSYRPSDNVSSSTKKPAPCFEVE
Type of series: binding.

The conditions of series [1]: no species and reference not given; cited from earlier work.

Regarding `CC(C)[C@@H](C(=O)O)N(Cc1ccc(-c2ccccc2-c2nnn[nH]2)cc1)C(=O)CCCCF` [FV45, (S)-2-(N-((2′-(1H-Tetrazol-5-yl)-[1,1′-biphenyl]-4-yl)methyl)-5-fluoropentanamido)-3-methylbutanoic Acid], on human AT1 receptor, the affinity corresponds to a Ki of 14.6 nM. For `CCCCC(=O)N(Cc1ccc(-c2ccccc2-c2nnn[nH]2)cc1)[C@H](C(=O)O)C(C)C` [valsartan], in series [1], the average half-life entry was “around 6 h”.
